Key:
activated PBL = assay: α-tubulin polymerization assay in PBL activated with anti-CD3 and anti-CD28 antibodies; format: cell-based, human; conditions: PBL activated 24 hrs with anti-CD3 and anti-CD28, paclitaxel for one hour
Description: (§1) All primary cells were cultured in RPMI 1640 medium with 20% fetal bovine serum (regular medium) at a density of 2-5×10^6 cell/ml. In some cases, the PBL were stimulated for 24 hours with 1 μg/ml anti-CD3 and anti-CD28 antibodies (Alexis, San Diego, Calif.) prior to immunoblot analysis.
(§2) α-tubulin Polymerization Assay.
After a brief but vigorous vortex, the lysates were incubated at room temperature for 5 minutes, and then centrifuged at 16,000×g for 5 minutes to separate the soluble from polymerized α-tubulin. The supernatant and pellet fractions were resolved on 10-20% pre-cast tris-glycine gels (Novex, San Diego, Calif.) and then subjected to immune blotting with a specific anti-α-tubulin antibody.
The cytosolic (S) monomeric and particulate-bound (P) polymerized forms of α-tubulin were separated by centrifugation from drug-treated cells and assayed by immunoblotting.

CLL cells = assay: α-tubulin polymerization assay in CLL cells; format: cell-based, human; conditions: paclitaxel
Description: The Institutional Review Board of the University of California, San Diego approved this study, and all patients gave informed written consent to participation. Subjects had CLL according to National Cancer Institute (NCI) criteria of any Rai stage. None of the patients were in active chemotherapeutic treatments. Flow cytometric analysis determined that all specimens contained more than 90% CD5+ CD19+ B cells.
Peripheral blood from CLL patients or normal donors was layered on top of Ficoll-Paque Plus (Pharmacia, NJ) and centrifuged at 1200×g for twenty minutes. The enriched peripheral blood mononuclear cells (PBL) were washed several times with Ca++, Mg++-free HBSS.
as §1, §2
For each data point, 2×10^6 of cells were incubated in 2ml of regular medium containing drugs for various periods of time. The cells were then washed twice at room temperature, and resuspended in 50 μl of α-tubulin extraction buffer (1 mM MgCl2, 2 m MEGTA, 0.5% NP-40, 20 mM Tris-HCl, pH=6.8) supplemented with 2 mM phenylmethysulfonyl fluoride, and a protease inhibitor cocktail (Sigma). […]

SMILES: CC(=O)O[C@H]1C(=O)[C@@]2(C)[C@H]([C@H](OC(=O)c3ccccc3)[C@]3(O)C[C@H](OC(=O)[C@H](O)[C@@H](NC(=O)c4ccccc4)c4ccccc4)C(C)=C1C3(C)C)[C@]1(OC(C)=O)CO[C@@H]1C[C@@H]2O [paclitaxel]
- α-tubulin in the particulate fraction after treatment (activated PBL): shift of α-tubulin to the particulate-bound fraction
- α-tubulin relocalization to the particulate fraction after treatment (CLL cells): nearly complete relocalization of α-tubulin to the particulate fraction

Source: patent US20040096436A1, “Methods for inhibiting protein kinases in cancer cells” (priority 2002, published 2004)
